Where two headings read alike, the source gives them in different places.
Tested on: C. parvum GCH1 oocysts
Assay: Intact C. parvum oocyst assay on MDBKF5D2 cell monolayers, immunofluorescence
Type: cell-based
Settings: for inhibition at 800 µg/mL / inhibition at 100 µg/mL / inhibition at 200 µg/mL / inhibition at 400 µg/mL / inhibition at 1 µg/mL / inhibition at 10 µg/mL / inhibition at 0.1 µg/mL: Cryptosporidium parvum
Description: In vitro doses of drugs. Thiostrepton (Calbiochem) was dissolved in sterile complete Dulbecco's Modified Eagle Medium (DMEM) supplemented with dimethyl sulfoxide (DMSO) at 0.2% and tested at concentrations of 800, 400, 200, and 100, 10, 1 and 0.1 μg/ml.
(§1) Intact C. parvum oocyst asset 3.0×10^4 C. parvum GCH1 oocysts per well were incubated in the above-mentioned concentrations of drug at 37° C. (8% CO2) on confluent MDBKF5D2 cell monolayers in 96 well microtiter plates. The level of infection in each well was determined and analyzed by immunofluorescence assay at 48 hours, using C. parvum sporozoite rabbit anti-serum (0.1%) and fluorescein-conjugated goat anti-rabbit antibody (1.0%). Percent inhibition was calculated by subtracting the mean parasite/drug from the mean parasitelmedium, divided by the mean parasite/medium, all of which was multiplied by 100. The analysis was performed using MCID and an inverted microscope.
In vitro doses of drugs. Thiostrepton (Calbiochem) and Phavic (NTZ) were dissolved in sterile complete Dulbecco's Modified Eagle Medium (DMEM) supplemented with dimethyl sulfoxide (DMSO) at 0.2% and tested at concentrations of 800, 400, 200, and 100 μg/ml. NTZ was tested at concentrations of 100, 10, 1 and 0.1 μg/ml. Paromomycin (Sigma) was dissolved in DMEM and tested at concentrations of 2000, 1000, 500 and 250 μg/ml.
as §1, with “assay .” for “asset”, “plates. For some monolayers, the oocysts were incubated in DMEM on the cell monolayers for four hours, at which time the monolayers were washed and then drug was added to the wells.” for “plates.”, “parasite/medium,” for “parasitelmedium,”
In vitro doses of drugs. Thiostrepton (Calbiochem), Phavic (NTZ) were dissolved in sterile complete Dulbecco's Modified Eagle Medium (DMEM) supplemented with dimethyl sulfoxide (DMSO) at 0.2%. Thiostrepton was tested at a concentration of 800 μg/ml. NTZ was tested at a concentration of 10 μg/ml. Paromomycin was dissolved in DMEM and tested at 2000 μg/ml. Cell monolayers were infected and washed, followed by the addition of drug at time intervals of 0, 2, 4, 8 and 24 hours.
as §1, with “assay.” for “asset”, “analyze” for “analyzed”, “parasite/medium,” for “parasitelmedium,”

## C=C(NC(=O)C(=C)NC(=O)c1csc(C2=N[C@@H]3c4csc(n4)[C@H]4NC(=O)c5csc(n5)[C@H]([C@](C)(O)[C@@H](C)O)NC(=O)[C@H]5CSC(=N5)/C(=C/C)NC(=O)[C@H]([C@@H](C)O)NC(=O)c5csc(n5)[C@]3(CC2)NC(=O)[C@H](C)NC(=O)C(=C)NC(=O)[C@H](C)NC(=O)[C@H]([C@@H](C)CC)N[C@@H]2C=Cc3c([C@H](C)O)cc(nc3[C@H]2O)C(=O)O[C@@H]4C)n1)C(N)=O [Thiostrepton, thiostrepton]
0 h, read-out: Inhibition Percent, Table 5, 800 μg/ml, drug added at 0 hrs
  inhibition at 800 µg/mL: 91.2%
0 h, read-out: Inhibition Score, Table 5, 800 μg/ml, drug added at 0 hrs
  inhibition at 800 µg/mL: 91 to 100%
2 h, read-out: Inhibition Percent, Table 5, 800 μg/ml, drug added at 2 hrs
  inhibition at 800 µg/mL: 91.8%
2 h, read-out: Inhibition Score, Table 5, 800 μg/ml, drug added at 2 hrs
  inhibition at 800 µg/mL: 91 to 100%
4 h, read-out: Inhibition Percent, Table 4 Washed at 4 hours, 100 μg/ml
  inhibition at 100 µg/mL: 61%
4 h, read-out: Inhibition Percent, Table 4 Washed at 4 hours, 200 μg/ml
  inhibition at 200 µg/mL: 78.7%
4 h, read-out: Inhibition Percent, Table 4 Washed at 4 hours, 400 μg/ml
  inhibition at 400 µg/mL: 88.2%
4 h, read-out: Inhibition Percent, Table 4 Washed at 4 hours, 800 μg/ml
  inhibition at 800 µg/mL: 87.4%
4 h, read-out: Inhibition Percent, Table 5, 800 μg/ml, drug added at 4 hrs
  inhibition at 800 µg/mL: 84.5%
4 h, read-out: Inhibition Score, Table 4 Washed at 4 hours, 100 μg/ml
  inhibition at 100 µg/mL: 56 to 70%
4 h, read-out: Inhibition Score, Table 4 Washed at 4 hours, 200 μg/ml
  inhibition at 200 µg/mL: 71 to 90%
4 h, read-out: Inhibition Score, Table 4 Washed at 4 hours, 400 μg/ml
  inhibition at 400 µg/mL: 71 to 90%
4 h, read-out: Inhibition Score, Table 4 Washed at 4 hours, 800 μg/ml
  inhibition at 800 µg/mL: 71 to 90%
4 h, read-out: Inhibition Score, Table 5, 800 μg/ml, drug added at 4 hrs
  inhibition at 800 µg/mL: 71 to 90%
8 h, read-out: Inhibition Percent, Table 5, 800 μg/ml, drug added at 8 hrs
  inhibition at 800 µg/mL: 84.9%
8 h, read-out: Inhibition Score, Table 5, 800 μg/ml, drug added at 8 hrs
  inhibition at 800 µg/mL: 71 to 90%
24 h, read-out: Inhibition Percent, Table 5, 800 μg/ml, drug added at 24 hrs
  inhibition at 800 µg/mL: 75%
24 h, read-out: Inhibition Score, Table 5, 800 μg/ml, drug added at 24 hrs
  inhibition at 800 µg/mL: 71 to 90%
read-out: Inhibition Percent, Table 1, 1 μg/ml
  inhibition at 1 µg/mL: < 0%
read-out: Inhibition Percent, Table 1, 10 μg/ml
  inhibition at 10 µg/mL: 12.4%
read-out: Inhibition Percent, Table 1, 100 μg/ml
  inhibition at 100 µg/mL: 29.4%
read-out: Inhibition Percent, Table 1, .1 μg/ml
  inhibition at 0.1 µg/mL: < 0%
read-out: Inhibition Percent, Table 2, 100 μg/ml
  inhibition at 100 µg/mL: 22.7%
read-out: Inhibition Percent, Table 2, 200 μg/ml
  inhibition at 200 µg/mL: 51.8%
read-out: Inhibition Percent, Table 2, 400 μg/ml
  inhibition at 400 µg/mL: 72.6%
read-out: Inhibition Percent, Table 2, 800 μg/ml
  inhibition at 800 µg/mL: 87.8%
read-out: Inhibition Percent, Table 3 Unwashed, 100 μg/ml
  inhibition at 100 µg/mL: 35.4%
read-out: Inhibition Percent, Table 3 Unwashed, 200 μg/ml
  inhibition at 200 µg/mL: 68.2%
read-out: Inhibition Percent, Table 3 Unwashed, 400 μg/ml
  inhibition at 400 µg/mL: 87.4%
read-out: Inhibition Percent, Table 3 Unwashed, 800 μg/ml
  inhibition at 800 µg/mL: 91.4%
read-out: Inhibition Percent, Table 6, 100 μg/ml
  inhibition at 100 µg/mL: 36.5%
read-out: Inhibition Percent, Table 6, 200 μg/ml
  inhibition at 200 µg/mL: 65.7%
read-out: Inhibition Percent, Table 6, 400 μg/ml
  inhibition at 400 µg/mL: 79%
read-out: Inhibition Percent, Table 6, 800 μg/ml
  inhibition at 800 µg/mL: 83.7%
read-out: Inhibition Score, Table 1, 1 μg/ml
  inhibition at 1 µg/mL: 0 to 30%
read-out: Inhibition Score, Table 1, 10 μg/ml
  inhibition at 10 µg/mL: 0 to 30%
read-out: Inhibition Score, Table 1, 100 μg/ml
  inhibition at 100 µg/mL: 0 to 30%
read-out: Inhibition Score, Table 1, .1 μg/ml
  inhibition at 0.1 µg/mL: 0 to 30%
read-out: Inhibition Score, Table 2, 100 μg/ml
  inhibition at 100 µg/mL: 0 to 30%
read-out: Inhibition Score, Table 2, 200 μg/ml
  inhibition at 200 µg/mL: 31 to 55%
read-out: Inhibition Score, Table 2, 400 μg/ml
  inhibition at 400 µg/mL: 71 to 90%
read-out: Inhibition Score, Table 2, 800 μg/ml
  inhibition at 800 µg/mL: 71 to 90%
read-out: Inhibition Score, Table 3 Unwashed, 100 μg/ml
  inhibition at 100 µg/mL: 31 to 55%
read-out: Inhibition Score, Table 3 Unwashed, 200 μg/ml
  inhibition at 200 µg/mL: 56 to 70%
read-out: Inhibition Score, Table 3 Unwashed, 400 μg/ml
  inhibition at 400 µg/mL: 71 to 90%
read-out: Inhibition Score, Table 3 Unwashed, 800 μg/ml
  inhibition at 800 µg/mL: 91 to 100%
read-out: Inhibition Score, Table 6, 100 μg/ml
  inhibition at 100 µg/mL: 31 to 55%
read-out: Inhibition Score, Table 6, 200 μg/ml
  inhibition at 200 µg/mL: 56 to 70%
read-out: Inhibition Score, Table 6, 400 μg/ml
  inhibition at 400 µg/mL: 71 to 90%
read-out: Inhibition Score, Table 6, 800 μg/ml
  inhibition at 800 µg/mL: 71 to 90%
Table 1, 1 μg/ml
  Parasite Count: 1193.19
Table 1, 10 μg/ml
  Parasite Count: 909.25
Table 1, 100 μg/ml
  Parasite Count: 732.31
Table 1, .1 μg/ml
  Parasite Count: 1052.13
Table 2, 100 μg/ml
  Parasite Count: 943.31
Table 2, 200 μg/ml
  Parasite Count: 587.81
Table 2, 400 μg/ml
  Parasite Count: 334.06
Table 2, 800 μg/ml
  Parasite Count: 149.25
Table 3 Unwashed, 100 μg/ml
  Parasite Count: 795.63
Table 3 Unwashed, 200 μg/ml
  Parasite Count: 391.19
Table 3 Unwashed, 400 μg/ml
  Parasite Count: 154.88
Table 3 Unwashed, 800 μg/ml
  Parasite Count: 106.06
Table 4 Washed at 4 hours, 100 μg/ml
  Parasite Count: 543.88
Table 4 Washed at 4 hours, 200 μg/ml
  Parasite Count: 297.19
Table 4 Washed at 4 hours, 400 μg/ml
  Parasite Count: 164.31
Table 4 Washed at 4 hours, 800 μg/ml
  Parasite Count: 176.31
Table 5, 800 μg/ml, drug added at 0 hrs
  Parasite Count: 112.44
Table 5, 800 μg/ml, drug added at 2 hrs
  Parasite Count: 104.19
Table 5, 800 μg/ml, drug added at 4 hrs
  Parasite Count: 196.81
Table 5, 800 μg/ml, drug added at 8 hrs
  Parasite Count: 192.56
Table 5, 800 μg/ml, drug added at 24 hrs
  Parasite Count: 318.25
Table 6, 100 μg/ml
  Parasite Count: 871.25
Table 6, 200 μg/ml
  Parasite Count: 470.69
Table 6, 400 μg/ml
  Parasite Count: 288.13
Table 6, 800 μg/ml
  Parasite Count: 223.13
Concentrations of 200 and above, Tables 1 and 2
  activity against C. parvum in vitro: good activity
In vitro, summary statement
  effectiveness compared with PRM: more effective than PRM at about one-fifth the dose
Intracellular stages only
  activity when drug is added 24 hours after infection: still highly inhibitory
